Patent US20240150321A1, “PYRAZOLYLSULFONAMIDE COMPOUNDS AND THEIR USE IN THERAPY” (HOTSPOT THERAPEUTICS, INC., priority 2022, published 2024)
pIC50: −log10 of the molar value. Where two headings read alike, the source gives them in different places.

Tests used:
[1] = system: NF-kB reporter in Jurkat cells; test: NF-kB reporter assay in Jurkat cells stimulated with aCD3/aCD28/PMA; format: cell-based; details: Homo sapiens, read-out: NF-kB Reporter Assay IC50
Method in brief: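 Luminescence (One-Glo) from the NF-kB reporter yielded IC50 values. Stimulation lasted 4 h at 37° C with aCD3, aCD28 and PMA (final 5, 5 and 0.03 […]), after 1 h compound pre-exposure of 25,000 Jurkat cells per well in serum-free RPMI.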

Avi-tagged FL MALT-1 = Avi-tagged FL MALT-1 (Homo sapiens (Human), UniProt Q9UDY8); test: MALT-1 Fluorogenic Peptide Cleavage Assay (MALT1 inhibition assay); format: biochemical; details: Ac-LRSR-AMC peptide substrate, 30 min pre-incubation, 90 min reaction at room temperature
Method in brief: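 Cleavage of Ac-LRSR-AMC, read as fluorescence at 342/441 nm after 90 min at room temperature, with substrate working stocks of 50 μM (Km) or 280 μM (10×Km). Enzyme, Avi-tagged full-length MALT-1 (40 nM stock), was first pre-incubated 30 min with compound in citrate/HEPES pH 6.89 buffer with TCEP, EDTA, CHAPS and 2% DMSO; IC50 fitted from normalised % inhibition.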

[2] = Jurkat cells, 1 hr compound pre-incubation, aCD3/aCD28/PMA stimulation 4 hr, One-Glo readout

Sequence of Avi-tagged FL MALT-1 (Q9UDY8 whole entry): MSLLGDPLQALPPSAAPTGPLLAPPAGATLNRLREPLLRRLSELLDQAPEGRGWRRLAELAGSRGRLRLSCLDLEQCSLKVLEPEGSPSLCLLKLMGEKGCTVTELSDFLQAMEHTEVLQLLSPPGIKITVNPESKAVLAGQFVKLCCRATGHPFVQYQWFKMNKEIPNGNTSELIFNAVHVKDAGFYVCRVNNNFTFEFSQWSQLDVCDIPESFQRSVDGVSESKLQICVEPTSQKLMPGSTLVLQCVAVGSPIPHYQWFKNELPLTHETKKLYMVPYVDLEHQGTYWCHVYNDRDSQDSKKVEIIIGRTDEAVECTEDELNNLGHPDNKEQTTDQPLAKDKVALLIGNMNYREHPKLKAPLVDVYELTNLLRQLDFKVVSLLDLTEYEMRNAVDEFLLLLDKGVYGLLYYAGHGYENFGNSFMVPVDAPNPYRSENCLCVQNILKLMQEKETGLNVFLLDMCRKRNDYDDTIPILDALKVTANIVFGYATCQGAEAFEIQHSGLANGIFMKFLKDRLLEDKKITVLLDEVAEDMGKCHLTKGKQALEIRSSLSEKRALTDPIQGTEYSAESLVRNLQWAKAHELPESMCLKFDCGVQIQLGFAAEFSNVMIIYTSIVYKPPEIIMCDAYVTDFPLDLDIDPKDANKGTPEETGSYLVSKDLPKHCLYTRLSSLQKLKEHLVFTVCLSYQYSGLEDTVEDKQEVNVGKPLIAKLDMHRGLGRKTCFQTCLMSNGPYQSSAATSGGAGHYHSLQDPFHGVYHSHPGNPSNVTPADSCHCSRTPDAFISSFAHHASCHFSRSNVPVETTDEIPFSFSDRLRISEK

SMILES	pIC50 [1, 2]	pIC50 (Avi-tagged FL MALT-1)	pIC50 ([1]; Jurkat)
COc1cnc(C(F)(F)F)cc1-n1cc(S(=O)(=O)Nc2c(OC)ccc3cnn(C)c23)cn1 [Compound I-90, N-(6-Methoxy-1-Methyl-1H-Indazol-7-yl)-1-(5-Methoxy-2-(Trifluoromethyl)Pyridin-4-yl)-1H-Pyrazole-4-Sulfonamide]	> 6.40	≥ 6.40	
COc1ccc2cnn(C)c2c1NS(=O)(=O)c1cnn(-c2cc(C(C)(F)F)ccn2)c1 [Compound I-91, 1-(4-(1,1-Difluoroethyl)Pyridin-2-yl)-N-(6-Methoxy-1-Methyl-1H-Indazol-7-yl)-1H-Pyrazole-4-Sulfonamide]	> 6.40	≥ 6.40	
COC1(c2ccnc(-n3cc(S(=O)(=O)Nc4cccc5cnn(C)c45)cn3)c2)CCC1 [Compound I-93, 1-(4-(1-Methoxycyclobutyl)Pyridin-2-yl)-N-(1-Methyl-1H-Indazol-7-yl)-1H-Pyrazole-4-Sulfonamide]	> 6.40	< 5.60	
Cn1ncc2cccc(NS(=O)(=O)c3cnn(-c4cc(C5(F)CCC5)ccn4)c3)c21 [Compound I-94, 1-(4-(1-fluorocyclobutyl)pyridin-2-yl)-N-(1-methyl-1H-indazol-7-yl)-1H-pyrazole-4-sulfonamide]	> 6.40	< 5.60	
Cc1ncn2cccc(NS(=O)(=O)c3cnn(-c4cc(C(F)(F)F)ccn4)c3)c12 [Compound I-95, N-(1-methylimidazo[1,5-a]pyridin-8-yl)-1-(4-(trifluoromethyl)pyridin-2-yl)-1H-pyrazole-4-sulfonamide]	> 6.40	< 5.60	
[2H]C([2H])([2H])Oc1ccc2cnn(C)c2c1NS(=O)(=O)c1cnn(-c2cc(C3CC3)ccn2)c1 [Compound I-96, 1-(4-cyclopropylpyridin-2-yl)-N-(6-(methoxy-d3)-1-methyl-1H-indazol-7-yl)-1H-pyrazole-4-sulfonamide]	> 6.40	≥ 6.40	
[2H]C([2H])([2H])n1ncc2ccc(OC)c(NS(=O)(=O)c3cnn(-c4cc(C5CC5)ccn4)c3)c21 [Compound I-97, 1-(4-Cyclopropylpyridin-2-yl)-N-(6-Methoxy-1-(Methyl-D3)-1H-Indazol-7-yl)-1H-Pyrazole-4-Sulfonamide]	> 6.40	≥ 6.40	
COCCn1ncc2cccc(NS(=O)(=O)c3cnn(-c4cc(C(F)(F)F)ccn4)c3)c21 [Compound I-98, N-(1-(2-Methoxyethyl)-1H-Indazol-7-yl)-1-(4-(Trifluoromethyl)Pyridin-2-yl)-1H-Pyrazole-4-Sulfonamide]	< 5.60	< 5.60	
COC1(c2ccnc(-n3cc(S(=O)(=O)Nc4cccc5cnn(C)c45)cn3)c2)CC(F)C1 (centres unmarked) [Compound I-99, 1-(4-(3-fluoro-1-methoxycyclobutyl)pyridin-2-yl)-N-(1-methyl-1H-indazol-7-yl)-1H-pyrazole-4-sulfonamide]	> 6.40	< 5.60	
[2H]C([2H])([2H])n1nc(F)c2cccc(NS(=O)(=O)c3cnn(-c4cc(C(F)(F)F)ccn4)c3)c21 [Compound I-100]	> 6.40	< 5.60	
Cn1ncc2cccc(NS(=O)(=O)c3cnn(-c4cc(C5(O)COC5)ccn4)c3)c21 [Compound I-101, 1-(4-(3-hydroxyoxetan-3-yl)pyridin-2-yl)-N-(1-methyl-1H-indazol-7-yl)-1H-pyrazole-4-sulfonamide]	> 6.40	< 5.60	
COCCn1ncc2cccc(NS(=O)(=O)c3cnn(-c4cc(C5CC5)ccn4)c3)c21 [Compound I-102, 1-(4-cyclopropylpyridin-2-yl)-N-(1-(2-methoxyethyl)-1H-indazol-7-yl)-1H-pyrazole-4-sulfonamide]	< 5.60	< 5.60	
Cn1ncc2cccc(NS(=O)(=O)c3cnn(-c4cc(N5CCOCC5)ccn4)c3)c21 [Compound I-103, N-(1-methyl-1H-indazol-7-yl)-1-(4-morpholinopyridin-2-yl)-1H-pyrazole-4-sulfonamide]	> 6.40	< 5.60	
Cn1cc2ccc(F)c(NS(=O)(=O)c3cnn(-c4cc(C(F)(F)F)ccn4)c3)c2n1 [Compound I-104, N-(6-fluoro-2-methyl-2H-indazol-7-yl)-1-(4-(trifluoromethyl)pyridin-2-yl)-1H-pyrazole-4-sulfonamide]	< 5.60	< 5.60	
Cn1nc2c(NS(=O)(=O)c3cnn(-c4cc(C(F)(F)F)ccn4)c3)cccc2c1Cl [Compound I-105, N-(3-chloro-2-methyl-2H-indazol-7-yl)-1-(4-(trifluoromethyl)pyridin-2-yl)-1H-pyrazole-4-sulfonamide]	5.60 to 6.00	< 5.60	
Cc1n[nH]c2cccc(NS(=O)(=O)c3cnn(-c4ccc(C5CC5)cn4)c3)c12 [Compound I-106, 1-(5-cyclopropylpyridin-2-yl)-N-(3-methyl-1H-indazol-4-yl)-1H-pyrazole-4-sulfonamide]	> 6.40	< 5.60	

SMILES	pIC50 [1, 2]	pIC50 (Avi-tagged FL MALT-1)	pIC50 ([1]; Jurkat)
Cn1ncc2cccc(NS(=O)(=O)c3cnn(-c4cc(C5(O)CCC5)ccn4)c3)c21 [Compound I-107, 1-(4-(1-Hydroxycyclobutyl)Pyridin-2-yl)-N-(1-Methyl-1H-Indazol-7-yl)-1H-Pyrazole-4-Sulfonamide]		< 5.60	> 6.40
O=S(=O)(Nc1cccc2cnn(C(F)F)c12)c1cnn(-c2cc(C(F)F)ccn2)c1 [Compound I-108, N-[1-(difluoromethyl)indazol-7-yl]-1-[4-(difluoromethyl)pyridin-2-yl]pyrazole-4-sulfonamide]	< 5.60	< 5.60	
Cn1ncc2cccc(NS(=O)(=O)c3cnn(-c4cc(C5=CCOC5)ccn4)c3)c21 [Compound I-109, 1-(4-(2,5-Dihydrofuran-3-yl)Pyridin-2-yl)-N-(1-Methyl-1H-Indazol-7-yl)-1H-Pyrazole-4-Sulfonamide]	> 6.40	< 5.60	
O=S(=O)(Nc1cccc2cnn(C(F)F)c12)c1cnn(-c2cc(Cl)ccn2)c1 [Compound I-110, 1-(4-chloropyridin-2-yl)-N-[1-(difluoromethyl)indazol-7-yl]pyrazole-4-sulfonamide]	< 5.60	< 5.60	
Cn1nc(Cl)c2cccc(NS(=O)(=O)c3cnn(-c4cc(C(F)(F)F)ccn4)c3)c21 [Compound I-111, N-(3-chloro-1-methyl-1H-indazol-7-yl)-1-(4-(trifluoromethyl)pyridin-2-yl)-1H-pyrazole-4-sulfonamide]	> 6.40	< 5.60	
Cn1ncc2cccc(NS(=O)(=O)c3cnn(-c4cc(C5(F)CC(F)C5)ccn4)c3)c21 (centres unmarked) [Compound I-112, 1-(4-(1,3-difluorocyclobutyl)pyridin-2-yl)-N-(1-methyl-1H-indazol-7-yl)-1H-pyrazole-4-sulfonamide]	> 6.40	< 5.60	
Cn1ncc2cccc(NS(=O)(=O)c3cnn(-c4cc(C(C)(C)F)ccn4)c3)c21 [Compound I-113, 1-(4-(2-fluoropropan-2-yl)pyridin-2-yl)-N-(1-methyl-1H-indazol-7-yl)-1H-pyrazole-4-sulfonamide]	> 6.40	< 5.60	
COC(C)(C)c1ccnc(-n2cc(S(=O)(=O)Nc3cccc4cnn(C)c34)cn2)c1 [Compound I-114, 1-(4-(2-Methoxypropan-2-yl)Pyridin-2-yl)-N-(1-Methyl-1H-Indazol-7-yl)-1H-Pyrazole-4-Sulfonamide]	> 6.40	< 5.60	
COc1ccc2cnn(C)c2c1NS(=O)(=O)c1cnn(-c2cc(C(C)(C)C)ccn2)c1 [Compound I-115, 1-(4-(tert-butyl)pyridin-2-yl)-N-(6-methoxy-1-methyl-1H-indazol-7-yl)-1H-pyrazole-4-sulfonamide]	> 6.40	≥ 6.40	
COC(C)c1ccnc(-n2cc(S(=O)(=O)Nc3cccc4cnn(C)c34)cn2)c1 (centres unmarked) [Compound I-116, 1-(4-(1-methoxyethyl)pyridin-2-yl)-N-(1-methyl-1H-indazol-7-yl)-1H-pyrazole-4-sulfonamide]	> 6.40	< 5.60	
Cc1cnc(-n2cc(S(=O)(=O)Nc3cccc4cnn(C)c34)cn2)cc1C(F)(F)F [Compound I-117, N-(1-methyl-1H-indazol-7-yl)-1-(5-methyl-4-(trifluoromethyl)pyridin-2-yl)-1H-pyrazole-4-sulfonamide]	> 6.40	5.60 to 6.00	
Cn1ncc2cccc(NS(=O)(=O)c3cnn(-c4cc(C5CCOC5)ccn4)c3)c21 (centres unmarked) [Compound I-118, N-(1-methyl-1H-indazol-7-yl)-1-(4-(tetrahydrofuran-3-yl)pyridin-2-yl)-1H-pyrazole-4-sulfonamide]	> 6.40	< 5.60	
Cn1ncc2cccc(NS(=O)(=O)c3cnn(-c4cc(C5=CCOCC5)ccn4)c3)c21 [Compound I-119, 1-(4-(3,6-Dihydro-2H-Pyran-4-yl)Pyridin-2-yl)-N-(1-Methyl-1H-Indazol-7-yl)-1H-Pyrazole-4-Sulfonamide]	> 6.40	< 5.60	
Cn1ncc2cncc(NS(=O)(=O)c3cnn(-c4cc(C(C)(F)F)ccn4)c3)c21 [Compound I-120, 1-(4-(1,1-Difluoroethyl)Pyridin-2-yl)-N-(1-Methyl-1H-Pyrazolo[4,3-C]Pyridin-7-yl)-1H-Pyrazole-4-Sulfonamide]	< 5.60	< 5.60	
Cn1ncc2cccc(NS(=O)(=O)c3cnn(-c4cc(C(F)(F)F)c(Cl)cn4)c3)c21 [Compound I-121, 1-(5-Chloro-4-(Trifluoromethyl)Pyridin-2-yl)-N-(1-Methyl-1H-Indazol-7-yl)-1H-Pyrazole-4-Sulfonamide]	> 6.40	6.00 to 6.40	
